# Test system: G. duodenalis BRIS/91/HEPU/1279
# Assay: Primary Giardia screen at 10 µM (live-cell imaging, automated counting)
# Assay type: cell-based, Giardia duodenalis
# Settings: 24 h
# How it was run: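 Percent growth versus 0.2% DMSO vehicle, background-corrected with media-only wells, is reported at 24 and 48 h from automated live-cell counts. Testing used 10 μM final in a 3% O2 atmosphere, with plate quality checked by Z' factor.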
row,Structure (SMILES),Average % Inhibition 24h [%]
1,O=C(NCc1ccco1)c1cnn2c1N[C@@H](c1ccc(Br)cc1)C[C@H]2C(F)(F)F (relative stereo) [SN00783428],15.1

# Same assay, conditions: 24 h, first singlicate assay
row,Structure (SMILES),% Inhibition n=1 24h [%]
1,O=C(NCc1ccco1)c1cnn2c1N[C@@H](c1ccc(Br)cc1)C[C@H]2C(F)(F)F (relative stereo) [SN00783428],27.8

# Same assay, conditions: 24 h, re-assessment
row,Structure (SMILES),% Inhibition n=2 24h [%]
1,O=C(NCc1ccco1)c1cnn2c1N[C@@H](c1ccc(Br)cc1)C[C@H]2C(F)(F)F (relative stereo) [SN00783428],2.5

# Same assay, conditions: 48 h
row,Structure (SMILES),Average % Inhibition 48h [%]
1,O=C(NCc1ccco1)c1cnn2c1N[C@@H](c1ccc(Br)cc1)C[C@H]2C(F)(F)F (relative stereo) [SN00783428],18.5

# Same assay, conditions: 48 h, first singlicate assay
row,Structure (SMILES),% Inhibition n=1 48h [%]
1,Cc1ccc(-n2nc(N3CCC(C(=O)NCC4CCCO4)CC3)ccc2=O)cc1Cl (centres unmarked) [SN00790174],0.0
2,COc1ccccc1-c1noc(Cn2cnc3c(nnn3Cc3ccccc3)c2=O)n1 [SN00790613],6.5
3,CCc1nnc(-c2cc3ccccc3n2CC(=O)N2CCCc3ccccc32)o1 [SN00789262],0.0
4,CCn1cc(C(=O)NCc2ccccc2)c(=O)c2ccc(C)nc21 [SN00792575],6.1
5,CSc1ccc(CNC(=O)C2CCN(S(=O)(=O)c3ccc(-c4ccn[nH]4)o3)CC2)cc1 [SN00790551],11.7
6,CCOC(=O)c1c(NC(=O)CN2C(=O)COc3ccc(Cl)cc32)sc2c1CCCC2 [SN00783847],26.0
7,O=C(Nc1ccc(Br)cc1)c1ccc(F)c(S(=O)(=O)NCCc2ccccc2)c1 [SN00794458],3.9
8,CCOc1ccc(-c2nc3sc4cc(C)ccc4n3c2NCCOC)cc1 [SN00795352],0.0
9,Cc1ccccc1C(=O)N[C@@H]1CCCC[C@H]1NC(=O)C1CCCN(C(=O)c2ccc(Cl)cc2)C1 (some centres unmarked) [SN00802559],3.9
10,NCC1CN(C2CC2)CCO1 (centres unmarked) [SN00782004],23.7
11,COc1ccc(C(C)(C)C)cc1S(=O)(=O)N1CCN(c2nc(C)cc(N3CCOCC3)n2)CC1 [SN00793559],5.9
12,CCCN1C(=O)c2cc(C(=O)Nc3ccc(F)cc3)ccc2C1Nc1ccc(F)cc1 (centres unmarked) [SN00785169],13.3
13,CCCN1CCN(C(=O)C2=C(C)C(=O)OC23CCN(S(=O)(=O)CC)CC3)CC1 [SN00791149],0.0
14,CN1CCCc2cc(C(=O)NCc3cccs3)sc21 [SN00799810],0.0
15,COc1ccccc1-c1cc(C(=O)N2CCCN(c3ccc(=O)n(-c4ccc(C)c(C)c4)n3)CC2)[nH]n1 [SN00791007],8.7
16,COc1ccccc1NC(=O)N1Cc2c(sc3c2CCN(C)C3)-n2cccc2C1C (centres unmarked) [SN00791542],24.5
17,CCCc1nnc(C(=O)Nc2cccc(C(=O)NCc3c[nH]nc3C)c2)s1 [SN00790723],0.0
18,O=C(NCc1ccccc1)c1ccc(-c2cc(N3CCOCC3)ncn2)cc1 [SN00794761],12.2
19,CN(C)CC1CN(S(=O)(=O)C2CC2)CC12CCOCC2 (centres unmarked) [SN00801268],16.1
20,CCc1cc(C2CCCN2C(=O)c2cnn3c(C(F)(F)F)cc(-c4cccs4)nc23)on1 (centres unmarked) [SN00793821],1.7
21,COc1ccccc1-c1cc(C(=O)Nc2sc(Nc3ccccc3)nc2C(N)=O)[nH]n1 [SN00792956],11.1
22,COc1ccc(S(=O)(=O)n2nc(-c3cc(OC)c(OC)c(OC)c3)cc2N)cc1OC [SN00785320],21.7
23,O=C(N1CCN(c2cccc(Cl)c2)CC1)C1(S(=O)(=O)c2ccc(Cl)cc2)CC1 [SN00784607],0.0
24,CC(C)(C)Nc1c(-c2ccc(F)cc2)nc2sc(N3CCN(Cc4ccccn4)CC3)nn12 [SN00795823],32.2
25,CC(=O)NCc1ccc(C(=O)N2CCCCC(N3CCCC3)C2)cc1 (centres unmarked) [SN00783239],4.5
26,Cc1nc(N(C)C)ncc1C(=O)O [SN00784957],3.0

row,Structure (SMILES),% Inhibition n=1 48h [%]
1,Cc1ccc(CNC(=O)N2CCN(C3=CC4=NCC(C)N4C=N3)CC2)cc1 (centres unmarked) [SN00800883],11.9
2,O=C(Cc1cccs1)Nc1ccc(N2CCN(c3ccccc3F)CC2)cc1C(=O)O [SN00790111],0.0
3,CCNC(=O)N1CCCC(c2cccc(C(=O)NCCC3=CCCCC3)c2)C1 (centres unmarked) [SN00790923],6.9
4,COCCn1c(C2CCN(S(=O)(=O)c3cccs3)C2)nc2cccnc21 (centres unmarked) [SN00802004],5.3
5,CCOC(=O)N1CCN(c2cc(-c3nc(-c4cccc(OC)c4OC)no3)c3ccccc3n2)CC1 [SN00796395],18.1
6,Cc1nnc(NC(=O)c2ccc3c(=O)n4c(nc3c2)CCCCCC4)s1 [SN00777547],37.7
7,CCCCNc1ncccc1-c1nc(-c2ccc(C)cc2)no1 [SN00786331],25.3
8,O=C(CC1COc2ccccc2N1Cc1ccccc1)N1CCc2ccccc2C1 (centres unmarked) [SN00790679],0.0
9,Cc1nc(-c2ccncc2)nc2c1CCC(=O)N2CCC1=CCCCC1 [SN00802205],0.0
10,O=C1COc2ccc(Cl)cc2N1Cc1nc(Cn2cnc3ccccc3c2=O)no1 [SN00789336],0.0
11,Cc1nnc(-c2cc(NS(=O)(=O)c3ccc(Cl)cc3)c(C)s2)o1 [SN00798629],2.8
12,COc1ccc(OC)c(CNC(=O)c2ccc3[nH]c4c(c3c2)CN(C(C)=O)CC4)c1 [SN00798195],0.0
13,Cc1ccc(Cl)cc1NC(=O)C1CC2CSCN2C12C(=O)Nc1ccccc12 (centres unmarked) [SN00789076],17.2
14,O=C(c1cnn(-c2ccccc2)c1C1CC1)N1CCc2ccccc21 [SN00775113],0.5
15,CC(C)OCCCNC(=O)Cn1c(=O)c(=O)n(Cc2ccncc2)c2ncccc21 [SN00793629],13.1
16,CCCN(c1ccccc1C(=O)O)S(=O)(=O)c1ccc2[nH]c(=O)[nH]c2c1 [SN00783856],12.1
17,COC(=O)c1c(NC(=O)Cn2nc(C(F)(F)F)c(Br)c2C)sc2c1CCCC2 [SN00794352],23.2
18,COc1ccc(S(=O)(=O)Nc2cc3c(cc2NCc2ccccc2)n(C)c(=O)n3C)cc1OC [SN00784765],14.1
19,COc1ccc(-c2ncc3c(n2)CCN(C(=O)c2ccccc2C(F)(F)F)C3)cc1 [SN00799000],0.0
20,Cc1ccc(C)c(OC2CCN(c3ncnc4nc[nH]c34)CC2)c1 [SN00780571],12.5
21,CCC(OC1CCCC1)C(=O)N1CCN(c2nccn2C)CC1 (centres unmarked) [SN00782691],0.0
22,CCOc1ccc(-n2c(=O)c3sc4ncccc4c3n(CC(=O)N3CCCCC3)c2=O)cc1 [SN00790501],5.1
23,CCOC(=O)Cc1ccc(NC(=O)N2CCC3(CC2)N=C(c2ccc(F)cc2)C(=O)N3)cc1 [SN00792712],14.3
24,NC(=O)c1cnc(N2CCC3(CC2)CC3c2nc(-c3cccc(Cl)c3)no2)c(Cl)c1 (centres unmarked) [SN00773335],0.0
25,CCOC(=O)N1CCN(c2nc(-c3cccs3)cc(C(F)(F)F)n2)CC1 [SN00784268],21.6
26,Cc1ccc(CNC(=O)C2(S(=O)(=O)c3ccc(Cl)cc3)CC2)cc1 [SN00784605],11.5

row,Structure (SMILES),% Inhibition n=1 48h [%]
1,COc1ccc(-c2nc(CS(=O)(=O)c3ccc(C)cc3)no2)c(C)c1 [SN00798481],11.0
2,CCOc1cccc(CC(=O)Nc2ccc3c(c2)C(=O)N(C)C2=NCCN23)c1OCC [SN00789358],35.6
3,Cn1c(C(=O)N2CCCC(C(=O)NCCc3ccccc3)C2)cc2sccc21 (centres unmarked) [SN00785483],4.8
4,COc1ccc(-n2ccn(CC(=O)Nc3ccc(OC)cc3OC)c2=O)cc1 [SN00789162],0.0
5,O=C(NCc1ccco1)c1cnn2c1N[C@@H](c1ccc(Br)cc1)C[C@H]2C(F)(F)F (relative stereo) [SN00783428],35.3
6,Cc1ccccc1C(=O)N1CCN(C(=O)c2[nH]nc3ccccc23)CC1 [SN00770261],25.4
7,CN(Cc1ccccc1)c1c2c(nc3nncn13)CCC2 [SN00785855],14.3
8,CCOC(=O)c1sc2nc(CN3CCCCC3)nc(NCCC(=O)OC)c2c1C [SN00775388],0.0
9,COc1ccc(C2CCC(=O)N2CCN2CCOCC2)cc1 (centres unmarked) [SN00801430],34.6
10,Cn1cc(CN2C(=O)NC(C)(c3ccco3)C2=O)cn1 (centres unmarked) [SN00774074],16.2
11,Cc1ccc(NC(=O)Cn2nnc(-c3nc(-c4ccccc4)no3)c2N)cc1C [SN00788081],2.5
12,Cc1ccc(Cl)cc1-n1ncc2c(NCCO)ncnc21 [SN00794417],8.1
13,COc1ccc(NC(=O)N2CCC3(CC2)Nc2cc(C)ccc2-n2cccc23)cc1 [SN00793004],10.6
14,CCOC(=O)c1csc(-n2nc(CC(C)C)cc2C(F)(F)F)n1 [SN00802831],29.0
15,COc1ccc(N2C(=O)NC3CC2(C)Oc2ccc(OC)cc23)cc1 (centres unmarked) [SN00784647],11.2
16,O=C(Nc1nc(-c2cc3ccccc3oc2=O)cs1)c1cccc(C(F)(F)F)c1 [SN00769798],0.0
17,CCc1ccc(NC(=O)[C@@H]2c3cc(OC)c(OC)cc3C(=O)N3CCCC[C@@H]23)cc1 (relative stereo) [SN00784165],28.1
18,COc1ccc(CNC(=O)c2sc(Nc3ccc(F)cn3)nc2C)cc1 [SN00797617],12.4
19,COCCc1ccc(Oc2nnnn2-c2ccccc2)cc1 [SN00775761],24.6
20,CCCNc1nc(N2CCN(CC)CC2)c2cnn(C)c2n1 [SN00792083],10.1
21,Cn1nnc2cc(CNC(=O)c3ccc(F)cc3)ccc21 [SN00798670],3.3
22,COc1ccc(NC(=O)c2cn(-c3ccc(-c4noc(C5CCCC5)n4)cc3)nc2C)cc1OC [SN00789967],25.5
23,COC(=O)c1cccc2c1CCCN2C(=O)C1CC(=O)N(CCc2ccccc2)C1 (centres unmarked) [SN00775178],0.0
24,COC(=O)c1ccc(Cn2c(-c3nnc(C(C)C)o3)cc3ccccc32)cc1 [SN00789282],4.4
25,O=C(c1cccc2[nH]ccc12)N1CCC(c2nc(-c3ccccc3)no2)C1 (centres unmarked) [SN00801115],23.0
26,CCOc1ccc(NS(=O)(=O)c2cc(C(=O)Nc3cc(C)ccc3C)[nH]n2)cc1 [SN00784397],15.3

# Same assay, conditions: 48 h, re-assessment
row,Structure (SMILES),% Inhibition n=2 48h [%]
1,O=C(NCc1ccco1)c1cnn2c1N[C@@H](c1ccc(Br)cc1)C[C@H]2C(F)(F)F (relative stereo) [SN00783428],1.8

# From paper PMC9775191, “A Subset Screen of the Compounds Australia Scaffold Library Identifies 7-Acylaminodibenzoxazepinones as Potent and Selective Hits for Anti-Giardia Drug Discovery” (Biomedicines, 2022)
